The results in this text go back to patent US20250380697A1, “ISOXAZOLINE DERIVATIVE COMPOUND AND INSECTICIDAL COMPOSITION COMPRISING SAME” (KYUNG NONG CORPORATION, priority 2022, published 2025).

Type in all cases: in vivo
In one assay the test system is Phaedon brassicae. The assay is described as follows: Pesticidal activity against Phaedon brassicae, leaf-dipping method. Particulars: counted 24, 48, 72 hours, time not given, read-out: mortality rate, Phaedon brassicae. The procedure:
Cabbage (Daiya) leaves were cut into pieces with a diameter of 5.8 cm, dipped in the pesticide composition where the compound of Synthesis Example 2 was diluted (the solvent=distilled water+acetone 50,000 mg/L+Triton X-100 100 mg/L) for 30 seconds, and sufficiently shade-dried. Then, the shade-dried cabbage leaves were is placed in a petri dish (8.8 cm in diameter) covered with filter paper and repeatedly inoculated 3-5 times with the larvae of Phaedon brassicae, 10 larvae per inoculation. In particular, the Phaedon brassicae larvae used were those which were bred in the Andong National University (Korea) for multiple generations.
After the inoculation, the Phaedon brassicae larvae were stored under the conditions of 16 hours of light and 8 hours of dark, 25±1° C. and 50-60% relative humidity, and the number of live Phaedon brassicae larvae was counted 24, 48, and 72 hours after the inoculation. Thereafter, the larvae mortality rate was calculated in the same manner as in Test Example 1 above.

The test system of a further assay is Thrips tabaci Lindeman. Description: Pesticidal activity against Thrips tabaci Lindeman, spray method. The settings on record: adults, counted 24 and 48 hours, time not given, read-out: mortality rate, Thrips tabaci Lindeman. From the text:
A water-soaked filter paper (9.0 cm in diameter) was placed in an insect breeding dish (Lab Guide®) with a diameter of 9.0 cm and a height of 4.0 cm, and then parafilm (width 4.0 cm×height 4.0 cm) was placed thereon. Before being treated with a pesticide composition, 10 adult Thrips tabaci Lindeman were inoculated per petri dish using a No. 4 brush. In this case, Thrips tabaci Lindeman adults used were those collected in a place near the Andong National University (Korea) and bred for multiple generations. Then, the pesticide composition where the compound of Synthesis Example 2 was diluted (the solvent=distilled water+acetone 50,000 mg/L+Triton X-100 100 mg/L) was loaded into a 100 mL small sprayer, and sprayed 10-12 times at a distance of 30 cm and a height of 50 cm, and one cotyledons of soybean, which is a host plant, were added one at a time. Then, the Thrips tabaci Lindeman adults were stored under the conditions of 16 hours of light and 8 hours of darkness, 25±1° C., and relative humidity of 50-60%, and the number of live Thrips tabaci Lindeman adults was counted 24, and 48 hours after the inoculation. Thereafter, the larvae mortality rate was calculated in the same manner as in Test Example 1 above.

Assay [1] concerns Frankliniella occidentalis. The assay is described as follows: Pesticidal activity against Frankliniella occidentalis, spray method. Particulars: 48 h; for mortality at 100 ppm: read-out: mortality rate against Frankliniella occidentalis. From the text:
A water-soaked filter paper (9.0 cm in diameter) was placed in an insect breeding dish (Lab Guide®) with a diameter of 9.0 cm and a height of 4.0 cm, and then parafilm (width 4.0 cm×height 4.0 cm) was placed thereon. Before treating with a pesticide composition, 10 adult Frankliniella occidentalis were inoculated per petri dish using a No. 4 brush. In this case, Frankliniella occidentalis adults used were those purchased from the Bio Utilization Institute (Andong, Korea). Then, each of the pesticide compositions prepared in Examples (a diluted solution in which each of the compounds of Synthesis Examples (concentration: 100 ppm) was diluted; the solvent=distilled water+acetone 50,000 mg/L+Triton X-100 100 mg/L) was loaded into a 100 mL small sprayer, and sprayed 10-12 times at a distance of 30 cm and a height of 50 cm, and one cotyledons of soybean, which is a host plant, were added one at a time. Then, the Frankliniella occidentalis adults were stored under the conditions of 16 hours of light and 8 hours of darkness, 25±1° C., and relative humidity of 50-60%, and the number of live Frankliniella occidentalis adults was counted 48 hours after the inoculation. Thereafter, the larvae mortality rate was calculated in the same manner as in Test Example 1 above.

Another assay relates to Plutella xylostella. The assay is described as follows: Pesticidal activity against Plutella xylostella, leaf-dipping method. Particulars: 48 h, read-out: larvae mortality rate against Plutella xylostella. As to the method:
Cabbage (Daiya) leaves were cut into pieces with a diameter of 5.8 cm, dipped in each of the pesticide compositions prepared in Examples (a 5% acetone solution in which each of the compounds of Synthesis Examples (concentration: 100 ppm) was diluted) for 30 seconds, and sufficiently shade-dried. Then, the shade-dried cabbage leaves were placed in a petri dish (8.8 cm in diameter) covered with a filter paper and repeatedly inoculated 3 times with third instar larvae of Plutella xylostella, 10 larvae per inoculation. In particular, Plutella xylostella larvae used were those which were collected in a place near Gyeongju (Korea) in 2000 and bred in a breeding room for multiple generations. Then, the Plutella xylostella larvae were stored under the conditions of 16 hours of light and 8 hours of dark, 25±1° C., and relative humidity of 50-60%, and the number of live Plutella xylostella larvae was counted 48 hours after the inoculation. Thereafter, the larvae mortality rate was calculated by correcting the density after treatment based on the density before treatment, as shown in Equation 1 and Equation 2 below, and converting the same into the corrected mortality rate for untreated (Reference: A method of computing the effectiveness of an insecticide. J. Econ. Entomol. 18:265˜267. Abbott, 1925).

A further assay concerns Spodoptera litura. Description: Pesticidal activity against Spodoptera litura, leaf-dipping method. The settings on record: 48 h, read-out: mortality rate against Spodoptera litura. As to the method: Cabbage (Daiya) leaves were cut into pieces with a diameter of 5.8 cm, dipped in each of the pesticide compositions prepared in Examples (a 5% acetone solution in which each of the compounds of Synthesis Examples (concentration: 100 ppm) was diluted) for 30 seconds, and sufficiently shade-dried. Then, the shade-dried cabbage leaves were placed in a petri dish (8.8 cm in diameter) covered with a filter paper and repeatedly inoculated 3 times with the second instar larvae of Spodoptera litura, 10 larvae per inoculation. In this case, Spodoptera litura larvae used were those which were purchased from the Bio Utilization Institute (Andong, Korea). Then, the Spodoptera litura larvae were stored under the conditions of 16 hours of light and 8 hours of dark, 25±1° C., and relative humidity of 50-60%, and the number of live Spodoptera litura larvae was counted 48 hours after the inoculation. Thereafter, the larvae mortality rate was calculated in the same manner as in Test Example 1 above.

Setting [2] is: read-out: mortality rate, Frankliniella occidentalis.

Usually mortality stands for the percentage killed. In the case of `CCN1OC[C@@H](NC(=O)c2ccc(C3=NO[C@@](c4cc(Cl)c(F)c(Cl)c4)(C(F)(F)F)C3)cc2C)C1=O` [Comparative Example 3, isocycloseram], the values for the mortality at 1 ppm in the assay with Phaedon brassicae (1 ppm) and with Thrips tabaci Lindeman (1 ppm) were 100% and 66%, respectively. Besides, the figures for the mortality at 3 ppm in the assay with Phaedon brassicae (3 ppm) and with Thrips tabaci Lindeman (3 ppm) were 100% and 76%, respectively. In addition, the mortality at 10 ppm in the assay with Phaedon brassicae (10 ppm) amounted to 100%; in the assay with Thrips tabaci Lindeman (10 ppm), 90%; in assay [1] (setting [2]), 100%. The mortality at 5 ppm in assay [1] (setting [2]) was found to be 100%.
Regarding `Cc1cc(C2=NOC(c3cc(Cl)cc(Cl)c3)(C(F)(F)F)C2)ccc1C(=O)N(C)C(=O)C1CC1` (centres unmarked) [Synthesis Example 13], the mortality at 100 ppm (in assay [1]; in the assay on Plutella xylostella; in the assay with Spodoptera litura) was ≥ 80% throughout.
On to `Cc1cc(C2=NOC(c3cc(Cl)cc(Cl)c3)(C(F)(F)F)C2)ccc1C(=O)NC(=O)C1CC1C1CC1` (centres unmarked) [Synthesis Example 53], for which the mortality at 100 ppm (in assay [1]; in the assay with Plutella xylostella; in the assay on Spodoptera litura) was ≥ 80% in each case.
As for `C/C=C/C=C/C(=O)NC(=O)c1ccc(C2=NOC(c3cc(Cl)cc(C(F)(F)F)c3)(C(F)(F)F)C2)cc1C` (centres unmarked) [Synthesis Example 72], the mortality at 100 ppm (in assay [1]; in the assay with Plutella xylostella; in the assay with Spodoptera litura) was ≥ 80% in each case.
